Laboratory results from patent US9302999B2, “Substituted triazoles as herbicides” (E. I. DU PONT DE NEMOURS AND COMPANY, priority 2012, dated 2016).

How the values were obtained:
Format in all cases: in vivo
[1] = test system: arrowleaf sida (Sida rhombifolia); test: Test F pre-/postemergence: arrowleaf sida; conditions: Preemergence
How it was run: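 Seeds were sown in silt loam soil and sprayed preemergence with test chemical in a non-phytotoxic solvent mixture containing surfactant; postemergence treatments went onto plants 2 to 18 cm tall (1- to 4-leaf stage) grown in peat moss/vermiculite medium. After 14 to 21 days in a greenhouse, injury was rated visually against controls, 0 (no effect) to 100 (complete control).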

[2] = test system: nutsedge, yellow (yellow nutsedge, Cyperus esculentus); test: Test F pre-/postemergence: nutsedge, yellow; conditions: Preemergence
Source text: Seeds of plant species selected from corn (Zea mays), soybean (Glycine max), velvetleaf (Abutilon theophrasti), lambsquarters (Chenopodium album), poinsettia, wild (wild poinsettia, Euphorbia heterophylla), pigweed, palmer (palmer pigweed, Amaranthus palmeri), waterhemp (common waterhemp, Amaranthus rudis), surinam grass (Brachiaria decumbens), crabgrass, Brazil (Brazilian crabgrass, Digitaria horizontalis), panicum, fall (fall panicum Panicum dichotomiflorum), crabgrass, large (large crabgrass, Digitaria sanguinalis), foxtail, giant (giant foxtail, Setaria faberii), foxtail, green (green foxtail Setaria viridis), goosegrass (Eleusine indica), ragweed (common ragweed, Ambrosia elatior), barnyardgrass (Echinochloa crus-galli), sandbur (southern sandbur, Cenchrus echinatus), arrowleaf sida (Sida rhombifolia), ryegrass, Italian (Italian ryegrass, Lolium multiflorum), dayflower, VA (Virginia (VA) dayflower, Commelina virginica), field bindweed (Convolvulus arvensis), cocklebur (common cocklebur, Xanthium strumarium), morningglory (Ipomoea coccinea), nightshade (eastern black nightshade, Solanum ptycanthum), kochia (Kochia scoparia), nutsedge, yellow (yellow nutsedge, Cyperus esculentus), johnsongrass (Sorghum halepense), smartweed (ladysthumb smartweed, Polygonum persicaria), and beggarticks (hairy beggarticks, Bidens pilosa), were planted into a silt loam soil and treated preemergence with test chemicals formulated in a non-phytotoxic solvent mixture which included a surfactant. At the same time, plants selected from these crop and weed species and also pigweed (Amaranthus retroflexus), waterhemp_RES1 (ALS/Triazine resistant common waterhemp, Amaranthus rudis) and waterhemp_RES2 (ALS/HPPD resistant common waterhemp, Amaranthus rudis) were planted in pots containing a planting medium comprising spaghnum peat moss, vermiculite, wetting agent and starter nutrients treated with postemergence applications of some of the test chemicals formulated in the same manner. Plants ranged in height from 2 to 18 cm for postemergence treatments (1- to 4-leaf stage).
Treated plants and controls were maintained in a greenhouse for 14 to 21 days, after which time all species were compared to controls and visually evaluated. Plant response ratings, summarized in Table E, are based on a scale of 0 to 100 where 0 is no effect and 100 is complete control. A dash (-) response means no test result.

[3] = test system: speedwell (bird's-eye speedwell, Veronica persica); test: Test D pre-/postemergence: speedwell; conditions: Preemergence
How it was run: (§1)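 Visual ratings from 0 (no effect) to 100 (complete control) were made 14–21 days after treatment, relative to controls. Applications were preemergence to seeds in silt loam, or postemergence to 2–18 cm (1–4 leaf) plants in peat-based medium. Compounds were formulated in a surfactant-containing non-phytotoxic solvent.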

[4] = test system: lambsquarters (Chenopodium album); test: Test D pre-/postemergence: lambsquarters
How it was run: as §1

[5] = test system: windgrass (Apera spica-venti); test: Test D pre-/postemergence: windgrass
How it was run: as §1

[6] = test system: radish, wild (wild radish, Raphanus raphanistrum); test: Test D pre-/postemergence: radish, wild
How it was run: as §1

Oilseed Rape = test: Test C preemergence: oilseed rape; conditions: 16 g ai/ha, scale 0 (no effect) to 100 (complete control)
[7] = 16 g ai/ha, scale 0 to 100, 0 no effect, 100 complete control
[8] = 31 g ai/ha, scale 0 to 100, 0 no effect, 100 complete control
[9] = Postemergence, 31 g ai/ha, scale 0 to 100 (0 no effect, 100 complete control)
[10] = Postemergence, 62 g ai/ha, scale 0 to 100 (0 no effect, 100 complete control)
[11] = Postemergence, 125 g ai/ha, scale 0 to 100, 0 no effect, 100 complete control
[12] = Postemergence, 16 g ai/ha, scale 0 to 100
[13] = Preemergence, 16 g ai/ha, scale 0 to 100, 0 no effect, 100 complete control
[14] = Preemergence, 31 g ai/ha, scale 0 to 100, 0 no effect, 100 complete control
[15] = Preemergence, 62 g ai/ha, scale 0 to 100
[16] = Preemergence, 125 g ai/ha, scale 0 to 100
[17] = Postemergence, 31 g ai/ha, scale 0 to 100

SMILES	Plant response rating, Arrowleaf Sida [1, 7]	Plant response rating, Arrowleaf Sida [1, 8]	Plant response rating, Arrowleaf Sida ([1]; 62 g ai/ha, scale 0 to 100)	Plant response rating, Arrowleaf Sida ([1]; 125 g ai/ha, scale 0 to 100)	Plant response rating, Arrowleaf Sida ([1]; 250 g ai/ha, scale 0 to 100)	Plant response rating, Nutsedge, Yellow [2, 7]	Plant response rating, Nutsedge, Yellow [2, 8]	Plant response rating, Nutsedge, Yellow ([2]; 125 g ai/ha, scale 0 to 100)	Plant response rating, Nutsedge, Yellow ([2]; 250 g ai/ha, scale 0 to 100)	Plant response rating, Speedwell [3, 7]	Plant response rating, Speedwell [3, 8]	Plant response rating, Speedwell ([3]; 62 g ai/ha, scale 0 to 100)	Plant response rating, Speedwell ([3]; 125 g ai/ha, scale 0 to 100)	Plant response rating: Lambsquarters [4, 9]	Plant response rating: Lambsquarters [4, 10]	Plant response rating: Lambsquarters [4, 11]	Plant response rating, Lambsquarters [4, 12]	Plant response rating, Lambsquarters [4, 13]	Plant response rating, Lambsquarters [4, 14]	Plant response rating, Lambsquarters [4, 15]	further results
COc1nn(-c2cccc(F)c2)nc1Cc1ccnc(C(F)(F)F)c1 [Compound 139]	0	0	0	0	0	0	0	0	0												
Cc1nn(-c2ccc(F)cc2F)nc1Oc1ccnc(C(F)(F)F)c1 [Compound 146]	0	0	0	0	10	0	0	0	0												
Cc1nn(-c2ccc(C(F)(F)F)c(F)c2)nc1Oc1ccnc(C(F)(F)F)c1 [Compound 148]	0	0	0	0	0	0	0	20	35	5	95	50	100	85	95	95	85	35	40	80	Plant response rating, Lambsquarters [4, 16]: 90; Plant response rating: Windgrass [5, 10]: 60; Plant response rating: Windgrass [5, 11]: 80; Plant response rating, Windgrass [5, 12]: 15; Plant response rating, Windgrass [5, 17]: 30; Plant response rating, Windgrass [5, 13]: 5; Plant response rating, Windgrass [5, 14]: 10; Plant response rating, Windgrass [5, 15]: 35; Plant response rating, Windgrass [5, 16]: 90; Plant response rating: Radish, Wild [6, 9]: 100; Plant response rating: Radish, Wild [6, 10]: 100; Plant response rating: Radish, Wild [6, 11]: 100; Plant response rating, Radish, Wild [6, 12]: 90; Plant response rating, Radish, Wild [6, 13]: 10; Plant response rating, Radish, Wild [6, 14]: 20; Plant response rating, Radish, Wild [6, 15]: 100; Plant response rating, Radish, Wild [6, 16]: 100
CCc1nn(-c2ccc(F)cc2)nc1Cc1ccnc(C(F)(F)F)c1 [Compound 154]	0	0	0	0	0	0	0	0	0												
CCc1nn(-c2ccc(C(F)(F)F)cc2)nc1Cc1ccnc(C(F)(F)F)c1 [Compound 155]			10	40	75			25	30	100	100	100	100	95	90	95	95	20	55	90	Plant response rating, Lambsquarters [4, 16]: 90; Plant response rating: Windgrass [5, 10]: 80; Plant response rating: Windgrass [5, 11]: 95; Plant response rating, Windgrass [5, 12]: 20; Plant response rating, Windgrass [5, 17]: 70; Plant response rating, Windgrass [5, 13]: 5; Plant response rating, Windgrass [5, 14]: 10; Plant response rating, Windgrass [5, 15]: 85; Plant response rating, Windgrass [5, 16]: 100; Plant response rating: Radish, Wild [6, 9]: 95; Plant response rating: Radish, Wild [6, 10]: 95; Plant response rating: Radish, Wild [6, 11]: 100; Plant response rating, Radish, Wild [6, 12]: 85; Plant response rating, Radish, Wild [6, 13]: 100; Plant response rating, Radish, Wild [6, 14]: 95; Plant response rating, Radish, Wild [6, 15]: 100; Plant response rating, Radish, Wild [6, 16]: 100
FCc1nn(-c2ccc(F)cc2)nc1Oc1ccnc(C(F)(F)F)c1 [Compound 160]																					Plant response rating, Oilseed Rape (Oilseed Rape): 0
